Like-named read-outs stand apart in the source and are kept apart here.
What was measured:
prostate line LNCap = experiment: In vitro cell culture growth assay (MTS), LNCap; format: cell-based; conditions: Homo sapiens, LNCaP, 72 h, LNCap cells, three days after drug treatment
Outline: (§1)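 Cells were plated and, one day later, treated with inhibitors. Three days after treatment, viable cell density was measured by MTS dye conversion, read as absorbance at 490 nm. Effects are expressed as percent of control growth versus vehicle-treated cells on the same plate.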

PI3K [1] = biological target: T1, PI3K (Homo sapiens, UniProt P42336); experiment: Fluorescence polarization assay for PI3K; format: biochemical; conditions: read-out: PI3 Kinase α IC50
T1 construct: PI3 Kinase α IC50; other: PI3 Kinase α; other: PI3 Kinase α isoform, fluorescence polarization
Outline: (§2)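 Fluorescence-polarization competition readout: after 30–60 min of PIP2/ATP turnover in 1% DMSO, a stop mix with GST-GRP (70 nM) and red probe (10 nM) was added.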

PI3K [2] = biological target: T2, PI3K (Homo sapiens, UniProt P48736); experiment: Fluorescence polarization assay for PI3K; format: biochemical; conditions: read-out: PI3 Kinase γ IC50
T2 construct: PI3 Kinase γ IC50; other: PI3 Kinase γ; other: PI3 Kinase γ isoform, fluorescence polarization
Outline: as §2

Human mTOR (FLAG-TOR) = biological target: T3, Human mTOR (FLAG-TOR) (Homo sapiens, UniProt P42345); experiment: Human mTOR kinase assay with purified enzyme, DELFIA format; format: biochemical
T3 construct: FLAG
Outline: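 DELFIA readout: Eu-anti-P(T389)-S6K antibody (40 ng/mL, 1 h) on captured His6-S6K from the stopped reaction. Kinase step used purified FLAG-tagged human mTOR with test compound in HEPES (pH 7.4)/MnCl2/DTT buffer, 2 h at room temperature (linear 1–6 h), terminated by EDTA/EGTA.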

breast line MDA468 = experiment: In vitro cell culture growth assay (MTS), MDA468; format: cell-based; conditions: Homo sapiens, 72 h, MDA468 cells, three days after drug treatment
Outline: as §1

[3] = PI3 Kinase α isoform, fluorescence polarization
[4] = PI3 Kinase γ isoform, fluorescence polarization
[5] = purified human mTOR enzyme, DELFIA format

T2 sequence (P48736 whole entry, canonical isoform): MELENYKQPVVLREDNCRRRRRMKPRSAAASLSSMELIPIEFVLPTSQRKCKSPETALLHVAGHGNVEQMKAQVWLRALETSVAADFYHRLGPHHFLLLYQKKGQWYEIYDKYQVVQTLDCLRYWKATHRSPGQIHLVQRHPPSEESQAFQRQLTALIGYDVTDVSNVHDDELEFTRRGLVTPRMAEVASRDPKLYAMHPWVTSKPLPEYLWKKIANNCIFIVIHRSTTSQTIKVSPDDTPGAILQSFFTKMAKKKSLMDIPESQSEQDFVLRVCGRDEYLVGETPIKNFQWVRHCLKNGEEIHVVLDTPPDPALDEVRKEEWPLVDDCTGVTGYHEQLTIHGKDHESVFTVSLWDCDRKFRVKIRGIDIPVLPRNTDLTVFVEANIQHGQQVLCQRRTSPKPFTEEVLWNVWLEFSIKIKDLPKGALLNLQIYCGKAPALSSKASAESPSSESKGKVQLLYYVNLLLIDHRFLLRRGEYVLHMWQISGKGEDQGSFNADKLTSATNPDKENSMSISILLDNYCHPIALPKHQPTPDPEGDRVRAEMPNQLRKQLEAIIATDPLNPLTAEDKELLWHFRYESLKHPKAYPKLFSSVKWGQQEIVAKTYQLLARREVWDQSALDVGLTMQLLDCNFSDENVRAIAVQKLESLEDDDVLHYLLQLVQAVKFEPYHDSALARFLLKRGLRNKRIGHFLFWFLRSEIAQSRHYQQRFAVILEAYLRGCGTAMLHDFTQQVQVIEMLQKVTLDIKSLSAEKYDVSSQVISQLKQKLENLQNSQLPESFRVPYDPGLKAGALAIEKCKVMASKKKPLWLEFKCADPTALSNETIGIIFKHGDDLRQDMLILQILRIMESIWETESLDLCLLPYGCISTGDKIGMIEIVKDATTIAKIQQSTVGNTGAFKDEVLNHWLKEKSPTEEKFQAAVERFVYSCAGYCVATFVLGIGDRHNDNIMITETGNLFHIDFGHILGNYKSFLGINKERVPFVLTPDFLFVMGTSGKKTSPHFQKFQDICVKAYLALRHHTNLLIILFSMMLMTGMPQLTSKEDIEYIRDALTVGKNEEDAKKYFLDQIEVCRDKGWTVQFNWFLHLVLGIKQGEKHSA
T1 sequence (P42336 whole entry, canonical isoform): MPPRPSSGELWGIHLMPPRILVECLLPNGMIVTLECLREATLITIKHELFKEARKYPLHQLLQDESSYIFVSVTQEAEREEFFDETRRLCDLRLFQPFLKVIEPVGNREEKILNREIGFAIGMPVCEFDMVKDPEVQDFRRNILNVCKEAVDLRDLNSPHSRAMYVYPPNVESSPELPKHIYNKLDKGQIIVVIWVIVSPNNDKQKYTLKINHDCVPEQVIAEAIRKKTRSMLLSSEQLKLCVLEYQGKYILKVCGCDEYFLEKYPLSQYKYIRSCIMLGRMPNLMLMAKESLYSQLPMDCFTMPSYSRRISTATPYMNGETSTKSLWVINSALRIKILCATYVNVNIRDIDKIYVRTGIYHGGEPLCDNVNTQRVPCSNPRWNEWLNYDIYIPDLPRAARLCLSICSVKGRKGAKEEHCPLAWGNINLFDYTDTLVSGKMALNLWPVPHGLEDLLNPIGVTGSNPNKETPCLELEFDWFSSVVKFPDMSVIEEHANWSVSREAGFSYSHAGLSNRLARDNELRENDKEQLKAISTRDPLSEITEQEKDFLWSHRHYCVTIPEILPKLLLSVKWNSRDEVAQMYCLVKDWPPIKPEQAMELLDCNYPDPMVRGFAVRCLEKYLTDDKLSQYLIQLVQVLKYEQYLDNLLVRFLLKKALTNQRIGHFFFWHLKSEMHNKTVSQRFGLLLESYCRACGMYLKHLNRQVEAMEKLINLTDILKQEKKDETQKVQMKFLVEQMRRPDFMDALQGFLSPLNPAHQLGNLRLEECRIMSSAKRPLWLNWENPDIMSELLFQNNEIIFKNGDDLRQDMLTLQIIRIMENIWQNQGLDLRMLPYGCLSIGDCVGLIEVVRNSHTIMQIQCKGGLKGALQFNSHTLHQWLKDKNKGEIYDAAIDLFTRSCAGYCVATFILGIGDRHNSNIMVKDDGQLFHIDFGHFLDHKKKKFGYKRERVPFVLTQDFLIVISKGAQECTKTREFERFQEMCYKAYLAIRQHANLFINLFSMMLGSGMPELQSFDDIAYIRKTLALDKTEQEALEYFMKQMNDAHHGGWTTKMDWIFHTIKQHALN

SMILES	IC50 (prostate line LNCap) [µM]	IC50 (PI3K [1]; PI3 Kinase α) [µM]	IC50 (PI3K [2]; PI3 Kinase γ) [µM]	IC50 (Human mTOR (FLAG-TOR)) [µM]	IC50 (PI3K [1]; [3]) [µM]	IC50 (PI3K [2]; [4]) [µM]	IC50 (Human mTOR (FLAG-TOR); [5]) [µM]	IC50 (breast line MDA468) [µM]
CCNC(=O)Nc1ccc(-c2nc(N3CC4CCC(C3)O4)c3cnn(CCN(C)C)c3n2)cc1 [Example 160, 1-(4-{1-[2-(dimethylamino)ethyl]-4-(8-oxa-3-azabicyclo[3.2.1]oct-3-yl)-1H-pyrazolo[3,4-d]pyrimidin-6-yl}phenyl)-3-ethylurea]	0.28	3.12	> 10	0.013				1.8
COC(=O)N1CCC(n2ncc3c(N4C5CCC4COC5)nc(-c4ccc(NC(=O)NC5CC5)cc4)nc32)CC1 [Example 359, methyl 4-[6-{4-[(cyclopropylcarbamoyl)amino]phenyl}-4-(3-oxa-8-azabicyclo[3.2.1]oct-8-yl)-1H-pyrazolo[3,4-d]pyrimidin-1-yl]piperidine-1-carboxylate]	0.006				5.64	7.79	0.000705	0.036
CCn1ncc2c(N3CC4CCC(C3)O4)nc(-c3ccc(NC(=O)NCCN)cc3)nc21 [Example 173, 1-(2-aminoethyl)-3-{4-[1-ethyl-4-(8-oxa-3-azabicyclo[3.2.1]oct-3-yl)-1H-pyrazolo[3,4-d]pyrimidin-6-yl]phenyl}urea]	0.27	0.27	3.13	0.00225				0.65
Cn1ncc2c(N3CC4CCC(C3)O4)nc(-c3ccc(NC(=O)NCCF)cc3)nc21 [Example 52, 1-(2-fluoroethyl)-3-{4-[1-methyl-4-(8-oxa-3-azabicyclo[3.2.1]oct-3-yl)-1H-pyrazolo[3,4-d]pyrimidin-6-yl]phenyl}urea]	0.1	0.877	9.5	0.001				0.5
CNC(=O)Nc1ccc(-c2nc(N3CC4CCC(C3)O4)c3sc(CN4CCN(S(C)(=O)=O)CC4)cc3n2)cc1 [Example 429, 1-methyl-3-{4-[6-{[4-(methylsulfonyl)piperazin-1-yl]methyl}-4-(8-oxa-3-azabicyclo[3.2.1]oct-3-yl)thieno[3,2-d]pyrimidin-2-yl]phenyl}urea]	0.12				0.046	3.71	0.0014	0.09
O=C(Nc1ccccc1)Nc1ccc(-c2nc(N3CC4CCC(C3)O4)c3cnn(C4CCNCC4)c3n2)cc1 [Example 29, 1-{4-[4-(8-oxa-3-azabicyclo[3.2.1]oct-3-yl)-1-piperidin-4-yl-1H-pyrazolo[3,4-d]pyrimidin-6-yl]phenyl}-3-phenylurea]	0.1	0.273	2.31	0.0023				0.28
COC(=O)Nc1ccc(-c2nc(N3CC4CCC(C3)O4)c3cnn(C)c3n2)cc1 [Example 60, methyl {4-[1-methyl-4-(8-oxa-3-azabicyclo[3.2.1]oct-3-yl)-1H-pyrazolo[3,4-d]pyrimidin-6-yl]phenyl}carbamate]	1.05	3.32	> 10	0.028				6.8
CCn1ncc2c(N3CC4CCC(C3)O4)nc(-c3ccc(NC(=O)NC4CCCCC4)cc3)nc21 [Example 227, 1-cyclohexyl-3-{4-[1-ethyl-4-(8-oxa-3-azabicyclo[3.2.1]oct-3-yl)-1H-pyrazolo[3,4-d]pyrimidin-6-yl]phenyl}urea]	1.2	5.94	> 10	0.015				3.2
CN1CCN(Cc2cc3nc(-c4ccc(NC(=O)NN(C)C)cc4)nc(N4CC5CCC(C4)O5)c3s2)CC1 [Example 425, 2,2-dimethyl-N-(4-{6-[(4-methylpiperazin-1-yl)methyl]-4-(8-oxa-3-azabicyclo[3.2.1]oct-3-yl)thieno[3,2-d]pyrimidin-2-yl}phenyl)hydrazinecarboxamide]	19				5.53	> 10	0.545	23

More lines, in order of falling IC50 (prostate line LNCap), values ahead:

IC50 (prostate line LNCap) [µM]	IC50 (PI3K [1]; PI3 Kinase α) [µM]	IC50 (PI3K [2]; PI3 Kinase γ) [µM]	IC50 (Human mTOR (FLAG-TOR)) [µM]	IC50 (PI3K [1]; [3]) [µM]	IC50 (PI3K [2]; [4]) [µM]	IC50 (Human mTOR (FLAG-TOR); [5]) [µM]	SMILES	IC50 (breast line MDA468) [µM]
0.087				0.825	> 10	0.00061	O=C(NCCF)Nc1ccc(-c2nc(N3CC4CCC(C3)O4)c3sccc3n2)cc1 [Example 408, 1-(2-fluoroethyl)-3-{4-[4-(8-oxa-3-azabicyclo[3.2.1]oct-3-yl)thieno[3,2-d]pyrimidin-2-yl]phenyl}urea]	0.53
0.038	1.69	8.84	0.0029				O=C(Nc1ccc(-c2nc(N3CC4CCC(C3)O4)c3cnn(C4CCN(Cc5ccccc5)CC4)c3n2)cc1)OCCO [Example 264, 2-hydroxyethyl {4-[1-(1-benzylpiperidin-4-yl)-4-(8-oxa-3-azabicyclo[3.2.1]oct-3-yl)-1H-pyrazolo[3,4-d]pyrimidin-6-yl]phenyl}carbamate]	0.7
0.018	0.188	3.82	0.00485				CN(C)CCn1ncc2c(N3CC4CCC(C3)O4)nc(-c3ccc(NC(=O)Nc4ccc(N5CCN(C)CC5)cc4)cc3)nc21 [Example 159, 1-(4-{1-[2-(dimethylamino)ethyl]-4-(8-oxa-3-azabicyclo[3.2.1]oct-3-yl)-1H-pyrazolo[3,4-d]pyrimidin-6-yl}phenyl)-3-[4-(4-methylpiperazin-1-yl)phenyl]urea]	0.09
0.012	3.96	11	0.00024				CC(C)(C)OC(=O)N1CCC(n2ncc3c(N4CC5CCC(C4)O5)nc(-c4ccc(NC(=O)NCCF)cc4)nc32)CC1 [Example 21, tert-butyl 4-[6-(4-{[(2-fluoroethyl)carbamoyl]amino}phenyl)-4-(8-oxa-3-azabicyclo[3.2.1]oct-3-yl)-1H-pyrazolo[3,4-d]pyrimidin-1-yl]piperidine-1-carboxylate]	0.12
0.01	0.464	2.98	0.0011				CCn1ncc2c(N3CC4CCC(C3)O4)nc(-c3ccc(NC(=O)Nc4ccc(Cl)cc4)cc3)nc21 [Example 188, 1-(4-chlorophenyl)-3-{4-[1-ethyl-4-(8-oxa-3-azabicyclo[3.2.1]oct-3-yl)-1H-pyrazolo[3,4-d]pyrimidin-6-yl]phenyl}urea]	0.19
0.006	0.419	> 10	0.0015				CCn1ncc2c(N3CC4CCC(C3)O4)nc(-c3ccc(NC(=O)Nc4ccc(N(C)C)nc4)cc3)nc21 [Example 284, 1-[6-(dimethylamino)pyridin-3-yl]-3-{4-[1-ethyl-4-(8-oxa-3-azabicyclo[3.2.1]oct-3-yl)-1H-pyrazolo[3,4-d]pyrimidin-6-yl]phenyl}urea]	0.08
0.004	0.353	> 10	0.000155				O=C(Nc1ccccc1)Nc1ccc(-c2nc(N3CC4CCC(C3)O4)c3cnn(C4CCC5(CC4)OCCO5)c3n2)cc1 [Example 127, 1-{4-[1-(1,4-dioxaspiro[4.5]dec-8-yl)-4-(8-oxa-3-azabicyclo[3.2.1]oct-3-yl)-1H-pyrazolo[3,4-d]pyrimidin-6-yl]phenyl}-3-phenylurea]	0.018
0.003	0.155	2.6	0.000745				CN(C)CCOc1ccc(NC(=O)Nc2ccc(-c3nc(N4CC5CCC(C4)O5)c4cnn(CCC#N)c4n3)cc2)cc1 [Example 224, 1-{4-[1-(2-cyanoethyl)-4-(8-oxa-3-azabicyclo[3.2.1]oct-3-yl)-1H-pyrazolo[3,4-d]pyrimidin-6-yl]phenyl}-3-{4-[2-(dimethylamino)ethoxy]phenyl}urea]	0.012

Reference: patent publication US8129371B2, “Thienopyrimidine and pyrazolopyrimidine compounds and their use as mTOR kinase and PI3 kinase inhibitors” (Wyeth LLC, priority 2007, dated 2012)
